Measured values: publication PMC6917776, “Discovery of a chemical probe for PRDM9” (Nature Communications, 2019)
Where “and” joins values, the source holds several entries; their conditions need not be identical. Equal values may be shown once.

Biological target: PRDM9 (Homo sapiens, UniProt Q9NQV7)
Assay: PRDM9 cellular assay: H3K4me3 of exogenous H3-GFP in MCF7 cells (western blot)
Format: cell-based
Conditions: for H3K4me3/GFP - western blot: MCF7, 20 h, replicates
Experimental: HEK293T (kind gift from Sam Benchimol, York University), or MCF7 (ATCC® HTB-22™), cells were plated (12 well plates) and next day co-transfected with 0.1 (HEK293T) or 0.2 (MCF7) µg of GFP-tagged histone H3 and with 0.1 (HEK293T) or 0.2 (MCF7) µg of Flag-tagged PRDM9/PRDM9 catalytic mutant (Y357S) and 0.8 or 0.6 µg of empty vector using JetPRIME® transfection reagent, following manufacturer instructions. After 4 h media was removed and cells were treated with compounds for 20 h. Next day, cells were lysed in lysis buffer (20 mM Tris-HCl pH 8, 150 mM NaCl, 1 mM EDTA, 10 mM MgCl2, 0.5% TritonX-100, 12.5 U mL^−1 benzonase (Sigma), complete EDTA-free protease inhibitor cocktail (Roche)). After 2 min incubation at RT, SDS was added to final 1% concentration. Cell lysates were analyzed in western blot for GFP and H3K4me3 levels. All cell lines were mycoplasma negative, as determined by MycoAlert™ Mycoplasma Detection Kit (Lonza).
Total cell lysates were resolved in 4–12% Bis-Tris Protein Gels (Invitrogen) and transferred in for 1.5 h (80 V) onto PVDF membrane (Millipore) in Tris-Glycine transfer buffer containing 20% MeOH and 0.05% SDS. Blots were blocked for 1 h in blocking buffer (5% milk in PBS) and incubated with primary antibodies anti-GFP (1:3000, Clontech # 632381), anti-H3K4me3 (1:1000, Millipore, #04-745), anti-histone H3 (1:2000, #ab10799, Abcam), anti-Flag (1:5000, #F4799, Sigma) in blocking buffer (5% BSA in 0.1% Tween 20 PBS) overnight at 4 °C. After five washes with 0.1% Tween 20 PBS the blots were incubated with goat-anti rabbit (IR800) and donkey anti-mouse (IR 680) antibodies (1:5000) in Odyssey Blocking Buffer (LiCor) for 1 h at RT and washed five times with 0.1% Tween 20 PBS. The signal was read on an Odyssey scanner (LiCor) at 800 nm and 700 nm and analyzed with Image Studio Ver.5.2 software. […]
exogenous histone H3 in MCF7 cells. […]
dependent K4 trimethylation of exogenous histone H3 in MCF7 cells. Cells were co-transfected with H3-GFP and PRDM9-FLAG and treated with compounds at indicated concentrations for 20 h. (b) The graph represents non-linear fit of H3K4me3 fluorescence intensities normalized to intensities of GFP. The results are from two independent experiments (n=2). Source data are provided as a Source Data file.
(1 picture or pasted object on this page, not shown here)

Sequence of PRDM9 (Q9NQV7 whole entry): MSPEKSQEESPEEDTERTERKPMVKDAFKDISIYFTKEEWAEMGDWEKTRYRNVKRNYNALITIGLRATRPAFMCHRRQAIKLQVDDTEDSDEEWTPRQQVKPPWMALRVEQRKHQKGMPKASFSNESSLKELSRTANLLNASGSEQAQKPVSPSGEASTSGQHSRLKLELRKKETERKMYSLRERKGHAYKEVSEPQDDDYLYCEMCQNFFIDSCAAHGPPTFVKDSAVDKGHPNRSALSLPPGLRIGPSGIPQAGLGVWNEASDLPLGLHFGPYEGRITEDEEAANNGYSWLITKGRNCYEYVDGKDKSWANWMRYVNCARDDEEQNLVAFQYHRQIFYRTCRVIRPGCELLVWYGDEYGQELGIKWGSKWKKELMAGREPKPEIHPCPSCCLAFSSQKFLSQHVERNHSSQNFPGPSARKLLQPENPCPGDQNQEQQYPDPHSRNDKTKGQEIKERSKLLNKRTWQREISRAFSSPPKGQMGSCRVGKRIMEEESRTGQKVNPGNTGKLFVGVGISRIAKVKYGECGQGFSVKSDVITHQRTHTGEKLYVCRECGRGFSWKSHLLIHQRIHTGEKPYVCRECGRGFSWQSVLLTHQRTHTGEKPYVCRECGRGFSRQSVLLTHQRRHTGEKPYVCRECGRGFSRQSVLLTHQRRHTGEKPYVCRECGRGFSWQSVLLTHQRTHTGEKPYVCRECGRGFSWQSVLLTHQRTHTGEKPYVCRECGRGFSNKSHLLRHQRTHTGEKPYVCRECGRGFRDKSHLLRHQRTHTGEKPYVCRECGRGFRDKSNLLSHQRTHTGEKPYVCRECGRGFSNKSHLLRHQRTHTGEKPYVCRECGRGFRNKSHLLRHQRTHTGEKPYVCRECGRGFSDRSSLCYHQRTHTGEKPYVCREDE

## COc1cc(OC)cc(-c2noc(N3CCN(C)C4(CCN(c5ccnc(C)c5)CC4)C3)n2)c1 [MRK-740]
0.256 µM
  H3K4me3/GFP - western blot: 72.3313 % control and 76.4161 % control
0.64 µM
  H3K4me3/GFP - western blot: 45.8788 % control and 51.2576 % control
1.6 µM
  H3K4me3/GFP - western blot: 25.9658 % control and 41.0483 % control
4 µM
  H3K4me3/GFP - western blot: 12.0678 % control and 16.7081 % control
10 µM
  H3K4me3/GFP - western blot: 8.819 % control and 7.277 % control
20 h
  Inhibition of H3K4 methylation in MCF7 cells, compared with HEK293T (in words): equipotent inhibitor of H3K4 methylation
